From patent US12419862B2, “Use of a cathepsin s inhibitor against the formation of anti-drug antibodies” (Hoffmann-La Roche Inc., priority 2018, dated 2025)

How the values were obtained:
[1] = test system: CEA-specific IgG response; experiment: ADA against CEA-IL2v in hIgG1 Tg mice over time, ELISA (Example 4, 63 days); format: in vivo, C57BL/6-Tg (hIgG1,k,l) mice; conditions: 40 mg/kg/day via food admix, primary and memory response, samples to day 63, vs vehicle
Method: (§1) 15-week-old mice C57BL/6-Tg (hIgG1,k,l) and C57BL/6 wild type mixed gender were purchased from Taconic (Denmark) and housed at the animal facilities in room with air-conditioned under a 12 hours light/dark cycle in macrolon boxes with enriched environment and free access to water and food. 7×10 μg of CEA-IL2v (Batch no GLI0144-01) were injected at day 0, 4, 7, 11, 14, 18 and 21 for the primary response, and at day 49, 53, 56 and 60 for the memory response. The CEA-112v injections were done subcutaneously in the right flank or the left flank alternatively. The dosage of (2S,4R)-4-[4-(1-methyl-1H-pyrazol-4-yl)-2-trifluoromethyl-benzenesulfonyl]-1-(1-trifluoromethyl-cyclopropanecarbonyl)-pyrrolidine-2-carboxylic acid (1-cyano-cyclopropyl)-amide consumption was 40 mg/kg/day. […]
Nunc Maxisorp flat-bottom 96 well ELISA plates were coated with 100 μl per well of Humira or CEA-PGLALA respectively at 5 μg/mL in NaHCO3100 mM buffer overnight at +4° C. […] 100 μl of substrate P-nitrophenyl phosphate ready to use (Life Technologies, Cat no 002212) were added per well and after 10 min incubation at room temperature, the OD at 405 nm was read as an end-point measurement with a Versamax ELISA reader.

[2] = test system: TCRβ+CD8+ T cells and NK1.1+ NKp46+ NK cells; experiment: PD effect of CEA-IL2v in blood, flow cytometry of CD8 T cells and NK cells (Example 5); format: in vivo; conditions: mice of Example 4; cathepsin S inhibitor 40 mg/kg/day vs vehicle
Method: as §1
From Example 4, 50 μl of lithium heparin whole blood were transferred into a 5 ml polystyrene round-bottom tubes (BD Falcon, Cat. no 352058) and 2 ml of freshly prepared 1× Pharm Lyse™ lysing buffer (BD Bioscience, Cat. no 555899) with UltraPur™ distilled water (Invitrogen, Cat. no 10977-035) were added. […] Data were acquired with the BD FACSDiva software v8.0 on BD LSRFortessa™ cytometer and analyzed with FlowJo™ V10.

Cn1cc(-c2ccc(S(=O)(=O)[C@@H]3C[C@@H](C(=O)NC4(C#N)CC4)N(C(=O)C4(C(F)(F)F)CC4)C3)c(C(F)(F)F)c2)cn1 [cathepsin S inhibitor, (2S,4R)-4-[4-(1-methyl-1H-pyrazol-4-yl)-2-trifluoromethyl-benzenesulfonyl]-1-(1-trifluoromethyl-cyclopropanecarbonyl)-pyrrolidine-2-carboxylic acid (1-cyano-cyclopropyl)-amide]
ADA to CEA-IL2v (CEA-specific IgG) over time [1]: prevents ADA to CEA-IL2v in hIgG transgenic mice
Effect on CEA-IL2v pharmacology (percentages of CD8 T cells and NK cells in blood) [2]: CEA-112v pharmacology is preserved
